From patent US6541480B2, “1-aryl-1,8-naphthylidin-4-one derivative as type IV phosphodiesterase inhibitor” (Suntory Limited, priority 1997, dated 2003)
pIC50: −log10 of the molar value.

Columns and labels:
[1] = tested on: type IV phosphodiesterase; assay: Type IV phosphodiesterase inhibiting activity (3H-cAMP hydrolysis, PDE IV fraction from U937 cells); format: biochemical; details: PDE IV fraction from human U937 cells, 30° C., 30 minutes
Procedure: (1) Method of Measurement of Type IV Phosphodiesterase Inhibiting Activity
The following assay was used to evaluate the ability of the compound of the present invention to suppress type IV phosphodiesterase, according to Biochemical.
1) Type IV phosphodiesterase activity fractions were prepared as follows. Human histiocytic lymphoma cell line U937 was cultured in an RPMI1640 medium containing 10% fetal calf serum to obtain 10^9 cells of U937. The cells were recovered by centrifugation and suspended in 40 ml of buffer A (20 mM bis-tris, 5 mM 2-mercaptoethanol, 2 mM benzamidine, 2 mM EDTA, 0.1 mM 4-(2-aminoethyl)benzensulfonyl hydrochloride, 50 mM sodium acetate, pH=6.5). The cells were broken by a sonication and centrifuged (4° C., 10,000G, 10 minutes) to obtain a supernatent. This was filtered by a 0.45 μm filter to obtain the soluble fraction.
The soluble fraction obtained was applied into a 1×10 cm DEAE Sepharose column equalibrated with the buffer A. 120 ml of the buffer A containing a linear gradient solution of 0.05 to 1 M sodium acetate was used to separate the phosphodiesterase and recover 24 5-ml fractions. Each of the fractions was measured for the cAMP phosphodiesterase activity.
2) The test compound was reacted at a desired concentration in a reaction mixture containing 20 mM tris-HCl (pH 7.5), 1 mM MgCl2, 100 μM EDTA, 330 μg/ml calf serum albumin, 10 μg/ml 5′-nucleotidase, 0.4 μCi ^3H-cAMP ([…] cAMP) and the type IV phosphodiesterase stored solution at 30° C. for 30 minutes. QAE-Sephadex suspended in 10 mM of hepes-Na (pH-7.0) was added to the reaction mixture which was then allowed to stand for 5 minutes, then the supernatant was obtained, QAE-Sephadex was further added, to the supernatant, and was allowed to stand for 5 minutes, then the supernatant was obtained and measured for radioactivity.

[2] = tested on: TNF-α production by LPS stimulated mouse peritoneal macrophages; assay: TNF-α production inhibitory activity by LPS stimulated macrophages (ELISA); format: cell-based; details: Peritoneal macrophage, LPS 10 μg/ml, 8 hours
Procedure: (1) Method of Measurement of TNF-α Production Inhibitory Activity by LPS Stimulated Macrophages
The following assay was used to evaluate the ability of the compound of the present invention to suppress TNF-α production by LPS stimulated macrophages according to Immuno pharmacol. 29, 121-127 (1995).
1) 6 to 10 week old female BALB/c mice were used, 2 ml portions of thioglycolate were intraperitoneally administered, and the abdominal cavities were washed by 10 ml of PBS after 4 days, whereby 1 to 2×10^7 peritoneal cells were obtained per mouse. These were suspended in a hemocyte solution (0.75% ammonium chloride, 17 mM tris-hydrochlorate buffer, pH7.2), centrifuged, then resuspended in an RPMI1640 medium including 10% fetal calf serum and seeded in a 96-well cell culture plate at a density of 1×10^5 cells/50 μl/well. Since these cells adhered strongly to the tissue culture plate and were positive in nonspecific esterase staining, they were used for the test as mouse peritoneal macrophages. Mouse peritoneal macrophages were precultured overnight at 37° C. in 5% CO2 for the experiment.
2) E. Coli (serum type 055:B5) derived LPS was dissolved in PBS in a concentration of 1 mg/ml, then sterilized by filtration. The test compound was dissolved in DMSO to make a 1000-fold concentration solution of the final concentration of use. 10 μl of the above LPS stock solution (final concentration 10 μg/ml) and 1 μl of the tested substance stock solution were added and mixed in 0.5 ml of RPMI1640 medium containing 10% fetal calf serum. This was added to the above cells at 50 μl/well and cultured for 8 hours. The cultured supernatant was recovered from each well and the TNF-α concentration was measured by the ELISA method (Cytoscreen® Immunoassay Kit Mouse TNF-α, BioSource International).

Structure (SMILES)	pIC50 [1]	pIC50 [2]
O=C(NCCc1ccccc1)c1cn(-c2ccc(F)cc2)c2ncccc2c1=O [Example 65, 1-(4-Fluorophenyl)-N-(2-phenylethyl)-1,4-dihydro[1,8]naphthylidin-4-one-3-carboxamide]	6.57	6.22
Cc1ccccc1NC(=O)c1cn(-c2ccc(F)cc2)c2ncccc2c1=O [Example 69, 1-(4-Fluorophenyl)-N-(2-tolyl)-1,4-dihydro[1,8]naphthylidin-4-one-3-carboxamide]	7.89	7.00
O=C(Nc1cccc(O)c1)c1cn(-c2ccc(F)cc2)c2ncccc2c1=O [Example 74, 1-(4-Fluorophenyl)-N-(3-hydroxythenyl)-1,4-dihydro[1,8]naphthylidin-4-one-3-carboxamide]	6.38	6.40
O=C(Nc1ccc(O)cc1)c1cn(-c2ccc(F)cc2)c2ncccc2c1=O [Example 75, 1-(4-Fluorophenyl)-N-(4-hydroxyhenyl)-1,4-dihydro[1,8]naphthylidin-4-one-3-arboxamide]	7.00	6.70
O=C(Nc1cccc(CO)c1)c1cn(-c2ccc(F)cc2)c2ncccc2c1=O [Example 79, 1-(4-fluorophenyl)-N-(3-hydroxymethylphenyl)-1,4-dihydro[1,8]naohthylidin-4-one-3-carboxamide]	7.26	6.52
NC(=O)c1cccc(NC(=O)c2cn(-c3ccc(F)cc3)c3ncccc3c2=O)c1 [Example 87, N-[3-(aminocarbonyl)phenyl]-1-(4-fluorophenyl)-1,4-dihydro[1,8]naphthylidin-4-one-3-carboxamide]	7.14	6.70
Nc1ccccc1NC(=O)c1cn(-c2ccc(F)cc2)c2ncccc2c1=O [Example 90, N-(2-aminophenyl)-1-(4-fluorophenyl)-1,4-dihydro[1,8]naphthylidin-4-one-3-carboxamide]	7.02	6.30
O=C(Nc1ccccc1[N+](=O)[O-])c1cn(-c2ccc(F)cc2)c2ncccc2c1=O [Example 93, 1-(4-fluorophenyl)-N-(2-nitrophenyl)-1,4-dihydro[1,8]naohthylidin-4-one-3-carboxamide]	7.80	7.52
O=C(Nc1ccc(F)cc1)c1cn(-c2ccc(F)cc2)c2ncccc2c1=O [Example 98, 1,N-bis-(4-fluorophenyl)-1,4-dihydro[1,8]naphthylidin-4-one-3-carboxamide]	6.80	6.00
Cc1cnccc1NC(=O)c1cn(-c2ccc(F)cc2)c2ncccc2c1=O [Example 104, 1-(4-Fluorophenyl)-N-(3-methylpyridin-4-yl)-1,4-dihydro[1,8]naphthylidin-4-one-3-carboxamide]	7.72	9.52
O=C(Nc1cccc2cnccc12)c1cn(-c2ccc(F)cc2)c2ncccc2c1=O [Example 114]	6.68	7.00

Continued, values first:

pIC50 [1]	pIC50 [2]	Structure (SMILES)
7.22	6.15	O=C(Nc1ccccc1)c1cn(-c2ccc(F)cc2)c2ncccc2c1=O [Example 67, N-phenyl-1-(4-fluorophenyl)-1,4-dihydro[1,8]naphthylidin-4-one-3-carboxamide]
6.21	6.00	Cc1cccc(NC(=O)c2cn(-c3ccc(F)cc3)c3ncccc3c2=O)c1 [Example 70, 1-(4-Fluororhenyl)-N-(3-tolyl)-1,4-dihydro[1,8]naohthylidin-4-one-3-carboxamide]
6.74	8.00	Cc1cccc(C)c1NC(=O)c1cn(-c2ccc(F)cc2)c2ncccc2c1=O [Example 72, 1-(4-Fluorophenyl)-N-(2,6-xylidyl)-1,4-dihydro[1,8]naphthylidin-4-one-3-carboxamide]
6.09	6.00	O=C(Nc1ccccc1O)c1cn(-c2ccc(F)cc2)c2ncccc2c1=O [Example 73, 1-(4-Fluorophenyl)-N-(2-hydroxyphenuyl)-1,4-dihydro[1,8]naphthylidin-4-one-3-carboxamide]
6.74	7.00	COc1cccc(NC(=O)c2cn(-c3ccc(F)cc3)c3ncccc3c2=O)c1 [Example 77, 1-(4-Fluorophenyl)-N-(3-methoxyphenyl)-1,4-dihydro[1,8]naphthylidin-4-one-3-carboxamide]
6.96	7.00	CC(=O)c1ccccc1NC(=O)c1cn(-c2ccc(F)cc2)c2ncccc2c1=O [Example 80, N-(2-acetophenyl)-1-(4-fluorophenyl)-1,4-dihydro[1,8]naphthylidin-4-one-3-carboxamide]
6.96	6.30	CC(=O)c1cccc(NC(=O)c2cn(-c3ccc(F)cc3)c3ncccc3c2=O)c1 [Example 81, N-(3-acetophenyl)-1-(4-fluorophenyl)-1,4-dihydro[1,8]naphthylidin-4-one-3-carboxamide]
7.49	6.40	O=C(O)c1cccc(NC(=O)c2cn(-c3ccc(F)cc3)c3ncccc3c2=O)c1 [Example 86, 3-[{[1-(4-Fluorophenyl)-1,4-dihydro[1,8]naohthylidin-4-one-3-yl]carbonyl}amino]benzoic Acid]
7.28	7.00	Nc1cccc(NC(=O)c2cn(-c3ccc(F)cc3)c3ncccc3c2=O)c1 [Example 91, N-(3-aminophenyl)-1-(4-fluorophenyl)-1,4-dihydro[1,8]naphthylidin-4-one-3-carboxamide]
6.85	6.70	Nc1ccc(NC(=O)c2cn(-c3ccc(F)cc3)c3ncccc3c2=O)cc1 [Example 92, N-(4-aminophenyl)-1-(4-fluorophenyl)-1,4-dihydro[1,8]naphthylidin-4-one-3-carboxamide]
6.46	6.30	O=C(Nc1cccc([N+](=O)[O-])c1)c1cn(-c2ccc(F)cc2)c2ncccc2c1=O [Example 94, 1-(4-Fluorophenyl)-N-(3-nitrophenyl)-1,4-dihydro[1,8]naphthylidin-4-one-3-carboxamide]
7.07	6.40	O=C(Nc1cccnc1Cl)c1cn(-c2ccc(F)cc2)c2ncccc2c1=O [Example 105, N-(2-Chloropyridin-3-yl)-1-(4-fluorophenyl)-1,4-dihydro[1,8]naphthylidin-4-one-3-carboxamide]
6.28	6.00	O=C(Nc1ccncn1)c1cn(-c2ccc(F)cc2)c2ncccc2c1=O [Example 107, 1-(4-Fluorophenyl)-N-(4-pyrimidyl)-1,4-dihydro[1,8]naphthylidin-4-one-3-carboxamide]
8.34	6.00	O=C(Nc1c(Cl)ncnc1Cl)c1cn(-c2ccc(F)cc2)c2ncccc2c1=O [Example 108, 1-(4-Fluorophenyl)-N-(4,6-dichloropyrimidine-5-yl)-1,4-dihydro[1,8]naphthylidin-4-one-3-carboxamide]
6.40	6.40	O=C(Nc1cnccn1)c1cn(-c2ccc(F)cc2)c2ncccc2c1=O [Example 109, 1-(4-Fluorophenyl)-N-pyrazinyl-1,4-dihydro[1,8]naphthylidin-4-one-3-carboxamide]
7.36	7.22	O=C(Nc1cccc2ncccc12)c1cn(-c2ccc(F)cc2)c2ncccc2c1=O [Example 113, 1-(4-Fluorophenyl)-N-(5-quinolyl)-1,4-dihydro [1,8]naphthylidin-4-one-3-carboxamide]
9.70	9.40	O=C(Nc1c(Cl)cncc1Cl)c1cn(-c2ccccc2)c2ncccc2c1=O [Example 118, N-(3,5-Dichloropyridin-4-yl)-1-phenyl-1,4-dihydro[1,8]naphthylidin-4-one-3-carboxamide]
